Data as given in US9163013B2, “Use of 1H-indazole-3-carboxamide compounds as glycogen synthase kinase 3 beta inhibitors” (AZIENDE CHIMICHE RIUNITE ANGELINI FRANCESCO A.C.R.A.F. …, priority 2012, dated 2015).
Where “and” joins values, the source holds several entries; their conditions need not be identical. Equal entries are not always repeated.

These compounds were tested against T1, human GSK-3β (Homo sapiens (Human), UniProt P49841) (assay: Activity on human GSK-3β, substrate phosphorylation measured by LANCE technology). Conditions: 10 μM, duplicate, human recombinant GSK-3β, 90 minutes at 22° C.
T1 sequence (P49841 whole entry): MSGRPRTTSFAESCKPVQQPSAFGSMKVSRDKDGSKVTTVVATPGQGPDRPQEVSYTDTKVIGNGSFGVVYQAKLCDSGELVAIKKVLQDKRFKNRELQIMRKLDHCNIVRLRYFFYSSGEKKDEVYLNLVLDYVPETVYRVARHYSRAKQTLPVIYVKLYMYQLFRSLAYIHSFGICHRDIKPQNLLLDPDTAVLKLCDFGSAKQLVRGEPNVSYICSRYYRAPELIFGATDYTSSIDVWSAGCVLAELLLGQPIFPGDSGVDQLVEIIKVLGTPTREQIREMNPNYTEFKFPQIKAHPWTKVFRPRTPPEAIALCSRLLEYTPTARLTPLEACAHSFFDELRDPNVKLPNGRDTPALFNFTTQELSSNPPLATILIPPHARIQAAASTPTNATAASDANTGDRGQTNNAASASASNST
Type: biochemical
Procedure: Activity on human GSK-3β was assessed using the following methods (according to Meijer et al., Chem. Biol., 2003-10:1255-1266).
In a first screening assay, compounds were tested in duplicate at a concentration of 10 μM.
Human recombinant enzyme GSK-3β was incubated for 90 minutes at 22° C. in the presence of compounds or vehicle in a reaction buffer containing ATP plus 100 nM unphosphorylated specific substrate peptide (Ulight-[…]-amide). Substrate phosphorylation was measured by LANCE technology (PerkinElmer, Conn., USA).
The results, reported in the following Table 4, are expressed as a percent of inhibition of control specific activity obtained in the presence of the test compounds (as % inhibition at 10 μm).
(§1) In a second assay, the same compounds were assayed at five concentrations ranging from 100 μM to 10 nM with ten-fold dilutions in duplicate. Compounds 1 to 7, 9, 11 and 13 to 26 were tested using the same first assay, compounds 8, 10, 12, and 27 to 31 were tested in another assay based on the binding and displacement of AlexaFluor® 647 labeled, ATP-competitive Kinase inhibitor scaffold using LanthaScreen™ TR-FRET technology Eu Kinase assay packet according to manufacturer's instruction (Life Technologies, Italy).
(§2) The IC50 values (concentration causing a half maximal inhibition of control specific activity), reported in table 4, were determined by non-linear regression analysis of the inhibition curves generated with mean replicate values using Hill equation curve fitting.
In the case of `COc1ccc(CCN2CCC(CNC(=O)c3n[nH]c4ccc(OC)cc34)CC2)cc1` [Compound 2, 5-methoxy-N-({1-[2-(4-methoxyphenyl)ethyl]piperidin-4-yl}methyl)-1H-indazole-3-carboxamide], the “% Inhibition [10 μM]” value is reported as 91% and the inhibition at 10 µM is reported as over 90%.

Same assay, conditions: LANCE phosphorylation assay; five concentrations 100 μM to 10 nM, duplicate; read-out: IC50
`COc1ccc2[nH]nc(C(=O)NCC3CCN(CCCN4C[C@@H](C)O[C@@H](C)C4)CC3)c2c1` [Compound 26, N-[(1-{3-[(2R,6S)-2,6-dimethylmorpholin-4-yl]propyl}piperidin-4-yl)methyl]-5-methoxy-1H-indazole-3-carboxamide] was tested, and the IC50 was > 1 µM and 2.1 µM.
An IC50 of 0.02 µM was found for `O=C(O)c1ccc(CN2CCC(CNC(=O)c3n[nH]c4ccc(-c5ccccc5F)cc34)CC2)o1` [Compound 20, 5-({4-[({[5-(2-Fluorophenyl)-1H-indazol-3-yl]carbonyl}amino)methyl]piperidin-1-yl}methyl)furan-2-carboxylic acid hydrate] in this work.
An IC50 of 0.95 µM was found for `CCOC(=O)c1nc(CN2CCC(CNC(=O)c3n[nH]c4ccc(OC)cc34)CC2)cs1` [Compound 13, Ethyl 4-{[4-({[(5-methoxy-1H-indazol-3-yl)carbonyl]amino}methyl)piperidin-1-yl]methyl}-1,3-thiazole-2-carboxylate] in this work.
An IC50 of 0.02 µM was found for `COc1ccc(-c2ccc3[nH]nc(C(=O)NCC4CCN(Cc5ccc(C(=O)O)o5)CC4)c3c2)cn1` [Compound 17, 5-({4-[({[5-(6-Methoxypyridin-3-yl)-1H-indazol-3-yl]carbonyl}amino)methyl]piperidin-1-yl}methyl)furan-2-carboxylic acid hydrate] in this work.
An IC50 of 0.36 µM was found for `COC(=O)c1coc(CN2CCC(CNC(=O)c3n[nH]c4ccc(Br)cc34)CC2)n1` [Compound 11, Methyl 2-{[4-({[(5-bromo-1H-indazol-3-yl)carbonyl]amino}methyl)piperidin-1-yl]methyl}-1,3-oxazole-4-carboxylate] in this work.
An IC50 of 0.4 µM was found for `COc1ccc2[nH]nc(C(=O)NCC3CCN(Cc4ccc(O)cc4)CC3)c2c1` [Compound 6, N-{[1-(4-hydroxybenzyl)piperidin-4-yl]methyl}-5-methoxy-1H-indazole-3-carboxamide] in this work.
An IC50 of 0.33 µM was found for `CCOC(=O)c1ccc(CN2CCC(CNC(=O)c3n[nH]c4ccc(OC)cc34)CC2)o1` [Compound 23, Ethyl 5-{[4-({[(5-methoxy-1H-indazol-3-yl)carbonyl]amino}methyl)piperidin-1-yl]methyl}furan-2-carboxylate] in this work.
With `COc1ccc(CCN2CCC(CNC(=O)c3n[nH]c4ccc(OC)cc34)CC2)cc1` [Compound 2, 5-methoxy-N-({1-[2-(4-methoxyphenyl)ethyl]piperidin-4-yl}methyl)-1H-indazole-3-carboxamide] the IC50 was < 0.6 µM and 0.56 µM.
An IC50 of 0.23 µM was found for `COC(=O)c1ccoc1CN1CCC(CNC(=O)c2n[nH]c3ccc(OC)cc23)CC1` [Compound 14, Methyl 2-{[4-({[(5-methoxy-1H-indazol-3-yl)carbonyl]amino}methyl)piperidin-1-yl]methyl}furan-3-carboxylate] in this work.
An IC50 of 0.01 µM was found for `O=C(O)c1ccc(CN2CCC(CNC(=O)c3n[nH]c4ccc(-c5cccc(F)c5F)cc34)CC2)o1` [Compound 19, 5-({4-[({[5-(2,3-Difluorophenyl)-1H-indazol-3-yl]carbonyl}amino)methyl]piperidin-1-yl}methyl)furan-2-carboxylic acid] in this work.
An IC50 of 0.31 µM was found for `COc1ccc2[nH]nc(C(=O)NCC3CCN(Cc4ccc(Cl)cc4Cl)CC3)c2c1` [Compound 3, N-{[1-(2,4-dichlorobenzyl)piperidin-4-yl]methyl}-5-methoxy-1H-indazole-3-carboxamide] in this work.
An IC50 of 0.35 µM was found for `COc1ccc2[nH]nc(C(=O)NCC3CCN(Cc4ccc(OCc5ccccc5)cc4)CC3)c2c1` [Compound 5, N-({1-[4-(benzyloxy)benzyl]piperidin-4-yl}methyl)-5-methoxy-1H-indazole-3-carboxamide] in this work.
An IC50 of 0.26 µM was found for `CCOC(=O)c1ccc(CN2CCC(CNC(=O)c3n[nH]c4ccc(Br)cc34)CC2)o1` [Compound 15, Ethyl 5-{[4-({[(5-bromo-1H-indazol-3-yl)carbonyl]amino}methyl)piperidin-1-yl]methyl}furan-2-carboxylate] in this work.
An IC50 of 0.36 µM was found for `COc1ncccc1-c1ccc2[nH]nc(C(=O)NCC3CCN(Cc4ccc(C(=O)O)o4)CC3)c2c1` [Compound 16, 5-({4-[({[5-(2-Methoxypyridin-3-yl)-1H-indazol-3-yl]carbonyl}amino)methyl]piperidin-1-yl}methyl)furan-2-carboxylic acid hydrate] in this work.
`COc1ccc2[nH]nc(C(=O)NCC3CCN(CCN4C[C@@H](C)O[C@@H](C)C4)CC3)c2c1` [Compound 25, N-[(1-{2-[(2R,6S)-2,6-dimethylmorpholin-4-yl]ethyl}piperidin-4-yl)methyl]-5-methoxy-1H-indazole-3-carboxamide] was tested, and the IC50 was > 1 µM and 1.4 µM.
An IC50 of 0.21 µM was found for `COC(=O)c1coc(CN2CCC(CNC(=O)c3n[nH]c4ccc(OC)cc34)CC2)n1` [Compound 9, Methyl 2-{[4-({[(5-methoxy-1H-indazol-3-yl)carbonyl]amino}methyl)piperidin-1-yl]methyl}-1,3-oxazole-4-carboxylate] in this work.
An IC50 of 0.64 µM was found for `COc1ccc2[nH]nc(C(=O)NCC3CCN(Cc4ccc(C(F)(F)F)cc4)CC3)c2c1` [Compound 4, 5-methoxy-N-({1-[4-(trifluoromethyl)benzyl]piepridin-4-yl}methyl)-1H-indazole-3-carboxamide] in this work.
An IC50 of 0.3 µM was found for `COc1ccc(-c2ccc3[nH]nc(C(=O)NCC4CCN(Cc5ccc(C(=O)O)o5)CC4)c3c2)cc1` [Compound 18, 5-({4-[({[5-(4-Methoxyphenyl)-1H-indazol-3-yl]carbonyl}amino)methyl]piperidin-1-yl}methyl)furan-2-carboxylic acid hydrate] in this work.
An IC50 of 0.21 µM was found for `O=C(O)c1ccc(CN2CCC(CNC(=O)c3n[nH]c4ccc(Br)cc34)CC2)o1` [Compound 22, 5-{[4-({[(5-Bromo-1H-indazol-3-yl)carbonyl]amino}methyl)piperidin-1-yl]methyl}furan-2-carboxylic acid] in this work.

Each compound was assayed against T1, human GSK-3β (assay: LanthaScreen TR-FRET Eu Kinase binding and displacement assay). Conditions: five concentrations 100 μM to 10 nM, duplicate.
Procedure: as §1, §2
An IC50 of 0.31 µM was found for `COc1ccc2[nH]nc(C(=O)NCC3CCN(Cc4noc(C(N)=O)n4)CC3)c2c1` [Compound 30, N-({1-[(5-carbamoyl-1,2,4-oxadiazol-3-yl)methyl]piperidin-4-yl}methyl)-5-methoxy-1H-indazole-3-carboxamide] in this work.
An IC50 of 0.45 µM was found for `COc1ccc2[nH]nc(C(=O)NCC3CCN(Cc4ccnc(C(=O)O)c4)CC3)c2c1` [Compound 28, 4-{[4-({[(5-methoxy-1H-indazol-3-yl)carbonyl]amino}methyl)piperidin-1-yl]methyl}pyridine-2-carboxylic acid] in this work.
An IC50 of 0.17 µM was found for `COc1ccc2[nH]nc(C(=O)NCC3CCN(Cc4nc(C(=O)O)cs4)CC3)c2c1` [Compound 8, 2-{[4-({[(5-Methoxy-1H-indazol-3-yl)carbonyl]amino}methyl)piperidin-1-yl]methyl}-1,3-thiazole-4-carboxylic acid] in this work.
An IC50 of 0.31 µM was found for `COc1ccc2[nH]nc(C(=O)NCC3CCN(Cc4nc(C(=O)O)co4)CC3)c2c1` [Compound 10, 2-{[4-({[(5-Methoxy-1H-indazol-3-yl)carbonyl]amino}methyl)piperidin-1-yl]methyl}-1,3-oxazole-4-carboxylic acid hydrate] in this work.
An IC50 of 0.32 µM was found for `COc1ccc2[nH]nc(C(=O)NCC3CCN(Cc4ccc(C(=O)O)nc4)CC3)c2c1` [Compound 29, Sodium 5-{[4-({[(5-methoxy-1H-indazol-3-yl)carbonyl]amino}methyl)piperidin-1-yl]methyl}pyridine-2-carboxylate] in this work.
An IC50 of 0.31 µM was found for `COc1ccc2[nH]nc(C(=O)NCC3CCN(CCC4CCCC(C)C4)CC3)c2c1` (stereo not drawn) [Compound 27, 5-methoxy-N-({1-[2-(3-methylcyclohexyl)ethyl]piperidin-4-yl}methyl)-1H-indazole-3-carboxamide] in this work.
